This is an account of results in patent publication US4883808A, “Condensation products of cyclic diketones and ascorbic acid as immunomodulatory agents” (American Biotechnology Company, priority 1988, dated 1989).

One series deals with feline leukemia virus. Put plainly: antiviral test of Sidewell and Huffman, feline leukemia virus in 81C cells. The format is cell-based, feline leukemia virus (81C feline kidney cell). To be noted: 81C cell line. Here is the method:
The virus rating (VR) of Compound A of this invention when tested in accordance with the method of […] and Huffman (Appl. Microbiol. 22:795-801, 1971) against adenovirus type 2 utilizing HEp-2 as the target cell was greater than 0.2. […] The minimum toxic concentration (MTC) was greater than 320 μg/ml. The same compound was also tested against feline leukemia virus by the […] and Huffman procedure using the […] cell line as the target. The […] cell is a feline kidney cell transformed with a murine leukemia virus (ras gene +) with the following results. The therapeutic index of the compound which is a measure of the compounds ability to protect the cell against the virus without adversely affecting cell growth was 22.

For the next series, the system named is adenovirus type 2. Put plainly: antiviral test of Sidewell and Huffman, adenovirus type 2 in HEp-2 cells. Type of series: cell-based. As to conditions: HEp-2 target cell. On the procedure:
The virus rating (VR) of Compound A of this invention when tested in accordance with the method of Sidewell and Huffman (Appl. Microbiol. 22:795-801, 1971) against adenovirus type 2 utilizing HEp-2 as the target cell was greater than 0.2. […] The minimum toxic concentration (MTC) was greater than 320 μg/ml.

Series [1] has as its system T- and B-lymphocytes isolated from mouse spleens. Put plainly: lymphocyte blastogenesis assay (mouse spleen lymphocytes, C-14 methyl thymidine uptake). Type of series: cell-based. To be noted: for LPS 5.0 (lymphocyte blastogenesis) / % CHANGE (LPS): LPS 5.0 MG/KG; for % CHANGE (LPS) / % CHANGE (PHA): vs 0 mg/kg; for PHA 10.0 (lymphocyte blastogenesis) / % CHANGE (PHA): PHA 10.0 UG/KG; for RPMI (lymphocyte blastogenesis): media, no mitogen. On the set-up: LPS 5.0 (lymphocyte blastogenesis) / RPMI (lymphocyte blastogenesis): unit not given here. An excerpt:
One of these tests is the lymphocyte blastogenesis assay which measures the ability of the compound under test to affect DNA synthesis and mitosis of T- and B- lymphocytes isolated from mouse spleens.
Mitogens are substances which stimulate DNA synthesis and mitosis. The mitogens used in these studies were phytohemaglutinin (PHA) which is isolated from the red kidney bean and a lipopolysacharide isolated from Salmonella tythimurium (LPS).
The lymphocyte blastogenesis test is a method to assess the ability of immunocompetent T- or B-cells to respond to mitogens or a specific antigen. It may be performed on lymphocytes obtained from mice treated with immunostimulators in vivo or the entire assay can be performed in vitro. The assay as described below uses minimal doses of polyclonal mitogens to induce blastogenesis (proliferation measured by DNA synthesis), in order to be able to assess the phenomena of amplification.
The lymphocyte blastogenesis test is carried out as follows:
1. Sacrifice two mice/experimental group by cervical dislocation.
2. Immerse mice in a mild disinfectant solution (Povadyne).
3. Remove spleens and place in a sterile 6 well plate containing 5 ml/well of RPMI-1640.
4. Make a single cell suspension by mincing spleens with a sterile toothed forcep.
5. Place cell suspension in a sterile centrifuge tube and allow large clumps to settle for 10 minutes.
6. Remove single cell suspension by pipetting supernatant into another sterile centrifuge tube.
7. Centrifuge cell suspension for 10 mins. at 1100 RPM in GLC-2B.
8. Aseptically remove supernatant and discard.
9. Resuspend cell button in 5 mls of RPMI-1640, and centrifuge. Wash cells in this manner two more times.
10. Resuspend cells in 5 mls of RPMI-1640 containing 10-15% Human AB heat-inactivated (Pel-Freeze, Rogers, AR or BioBee, Boston, MA).
11. Perform viable cell count using 0.25% trypan blue exclusion dye made in physiological isotonic saline. Non-viable cells stain blue.
12. Adjust viable cell concentration to […] in RPMI-1640 containing human AB sera.
13. Aliquot in sextuplicate wells of a 96 well sterile round bottom tissue culture plate with 0.1 ml/well of the various cell suspensions to be tested.
14. Add to above replicate sextuplicate cells selected quantities of mitogen.
15. Include in the experiment a control plate which contains the same cell groups as above, but receive a 0.1 ml of media instead of mitogen.
16. Humidify plate by filling outside wells of plate with media.
17. Incubate plates at […] with 5% CO-2 for 48 hours.
18. After 48 hours all wells receive 0.025 mls of a 0.4 microcurie/ml solution of C-14 methyl thymidine and incubate at 37 C, 5% CO-2 for 18 hours.
19. The cells are harvested using a Brandel M-12 Cell Harvestor (Brandel, Rockfille, MD) onto filter paper discs using phosphate buffered saline at physiological osmolarity. (285-320 mos).
20. The filter paper disks are placed into Packard mini-scintillation vials and allowed to dry for 18 hours.
21. Once dried, the vials are filled with 2 mls of a scintillation cocktail containing 4 liters of scintillation grade toluene, 16.0 g of 2,5-diphenyloxazole (PPO) and 0.4 g of 1,4-Bis (2-(5-Phenyloxazoly) benzene (POPOP).
22. The vials are counted in a LKB 1212 Rackbeta (LKB Instruments, Gaithersburg, MD) Liquid scintillation counter for two minutes/vial.

Take “<3,3'>-hemiketal-<3,6>-ketal of 2-(1',3'-diketo-4'-cyclopentyl)-2-hydroxy-3-keto-4-dihydroxyethylbutyrolactone [Compound A]”: in the series on feline leukemia virus, the “MTC (minimum toxic concentration)” value stood at 100. Further, the “ID50 (concentration in μg./ml that causes 50% reduction in virus replication)” value with feline leukemia virus (feline leukemia virus) amounted to 4.5 µg/mL. Moreover, the “VR (virus rating)” value in the series on feline leukemia virus (feline leukemia virus, control 0.98) is recorded as 1.1. Also, the “minimum toxic concentration (MTC)” value in the series on adenovirus type 2 is reported as “greater than 320 μg/ml”. In the series on adenovirus type 2 (adenovirus type 2), the “ID50 (concentration that causes 50% reduction in virus replication)” value is 505.19 µg/mL and the “virus rating (VR)” value was “greater than 0.2”.
As to “<3,4'>-hemiketal-<3,6>-ketal of 2-(1',4'-diketo-3'-cyclohexyl)-2-hydroxy-3-keto-4-dihydroxyethylbutyrolactone [Compound B]”, in series [1] (12.5 mg/kg), the “LPS 5.0 (lymphocyte blastogenesis)” value was 7195 ± 90, the “% CHANGE (LPS)” value was “+2.2%”, the “PHA 10.0 (lymphocyte blastogenesis)” value was found to be 7126 ± 1104 and the “% CHANGE (PHA)” value is -3.8%. For the same substance, the “RPMI (lymphocyte blastogenesis)” value in series [1] (12.5 mg/kg) was found to be 605 ± 117. For the same substance, in series [1] (25 mg/kg), the “LPS 5.0 (lymphocyte blastogenesis)” value came to 8580 ± 507, the “% CHANGE (LPS)” value is “+21.9%”, the “PHA 10.0 (lymphocyte blastogenesis)” value came to 7563 ± 2053 and the “% CHANGE (PHA)” value is on record as “+2.1%”. For the same substance, the “RPMI (lymphocyte blastogenesis)” value in series [1] (25 mg/kg) amounted to 1392 ± 247. In series [1] (50 mg/kg), the “LPS 5.0 (lymphocyte blastogenesis)” value came to 6823 ± 1305, the “PHA 10.0 (lymphocyte blastogenesis)” value worked out at 10218 ± 2630, the “% CHANGE (PHA)” value is on record as “+37.9%” and the “RPMI (lymphocyte blastogenesis)” value is listed as 1041 ± 687. Further, in series [1] (100 mg/kg), the “LPS 5.0 (lymphocyte blastogenesis)” value worked out at 8423 ± 351, the “% CHANGE (LPS)” value is listed as “+19.6%”, the “PHA 10.0 (lymphocyte blastogenesis)” value is 9258 ± 1391 and the “% CHANGE (PHA)” value is recorded as “+24.9%”. Also, the “RPMI (lymphocyte blastogenesis)” value in series [1] (100 mg/kg) was 705 ± 314. In series [1] (200 mg/kg), the “LPS 5.0 (lymphocyte blastogenesis)” value was determined as 8025 ± 1670, the “% CHANGE (LPS)” value was “+14%”, the “PHA 10.0 (lymphocyte blastogenesis)” value is recorded as 8111 ± 896 and the “% CHANGE (PHA)” value is listed as “+9.4%”. The “RPMI (lymphocyte blastogenesis)” value in series [1] (200 mg/kg) is given as 660 ± 354.
